From US9586963B2 (GENFIT, priority 2011, dated 2017)
Counter-ions that a name gives are not always drawn.

Tests used:
[1] = target: T1, Rev-Erb alpha (Homo sapiens, UniProt P20393); assay: M2H (mammalian two-hybrid) cellular activation assay of Rev-Erb alpha; type: cell-based; details: M2H assay, HEK293 cells; for EC50: Gal4-Rev-Erb alpha / VP16-NCoR, luciferase reporter; for Emax: relative to DMSO, at the tested dose, read-out: TOP activation
T1 sequence (P20393 284-614 limits assumed): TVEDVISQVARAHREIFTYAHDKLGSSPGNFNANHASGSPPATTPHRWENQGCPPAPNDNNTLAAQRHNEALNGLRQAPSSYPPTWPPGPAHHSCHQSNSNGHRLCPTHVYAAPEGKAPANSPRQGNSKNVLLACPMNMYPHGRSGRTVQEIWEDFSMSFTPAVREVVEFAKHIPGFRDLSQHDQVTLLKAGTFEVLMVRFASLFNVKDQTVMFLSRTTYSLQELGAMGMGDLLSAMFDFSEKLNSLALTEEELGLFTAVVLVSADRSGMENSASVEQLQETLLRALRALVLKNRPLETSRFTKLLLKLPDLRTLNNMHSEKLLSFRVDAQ
Summary of the method: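 Six-point dose-response, 18 h, 37 °C, serum-free, in HEK293 cells carrying a Gal4-RE luciferase reporter with Gal4-Rev-Erb alpha or beta plus VP16-NCoR (corepressor interaction readout). EC50 and TOP activation (%) derived from luminescence across four experiments.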

| Structure (SMILES) | melting point | EC50 [1] | Emax [1] |
| --- | --- | --- | --- |
| COc1cccc(-c2cc(F)ccc2Oc2ccc3nnc(Cl)n3n2)c1 (as salt: sodium) [Cpd.4-76, 3-chloro-6-(5-fluoro-3′ methoxy-biphenyl-2-yloxy)-[1,2,4]triazolo[4,3-b]pyridazine] | 91.3 to 93.4 °C | – | – |
| O=C(O)c1ccc(Oc2ccc3nnc(Cl)n3n2)c(-c2ccccc2)c1 [Cpd.4-59, 3-chloro-6-(5-hydroxycarbonyl-biphenyl-2-yloxy)-[1,2,4]triazolo[4,3-b]pyridazine] | 266.9 to 267.7 °C | – | – |
| FC(F)(F)c1ccc(-c2ccccc2)c(Oc2cc(-c3ccccc3)c3nnc(Cl)n3n2)c1 [Cpd.5-4, 3-chloro-8-phenyl-6-(4-trifluoromethyl-biphenyl-2-yloxy)-[1,2,4]triazolo[4,3-b]pyridazine] | 162 to 164 °C | – | – |
| CN1CCN(Cc2ccc(Oc3ccc4nnc(Cl)n4n3)c(-c3ccccc3)c2)CC1 [Cpd.4-159, 3-chloro-6-(5-(4-methylpiperazin-1-ylmethyl)biphenyl-2-yloxy)-[1,2,4]triazolo[4,3-b]pyridazine] | – | > 6 µM | > 130% |
| Clc1nnc2ccc(Oc3ccc(CNCC4CCCO4)cc3-c3ccccc3)nn12 (stereo not drawn) [Cpd.4-163, 3-chloro-6-(5-(tetrahydrofurfurylaminomethyl)biphenyl-2-yloxy)-[1,2,4]triazolo[4,3-b]pyridazine] | – | > 6 µM | > 130% |
| Fc1ccc(Oc2ccc3nnc(Cl)n3n2)c(-c2cccnc2)c1 [Cpd.4-107, 3-chloro-6-(4-fluoro-2-(pyridin-3-yl)phenoxy)-[1,2,4]triazolo[4,3-b]pyridazine] | – | > 6 µM | > 130% |
| CCCCn1cc(-c2ccc(C(F)(F)F)cc2Oc2ccc3nnc(Cl)n3n2)ccc1=O [Cpd.4-89, 1-butyl-5-(2-(3-chloro-[1,2,4]triazolo[4,3-b]pyridazin-6-yloxy)-4-(trifluoromethyl)phenyl)pyridin-2(1H)-one] | – | > 6 µM | > 130% |
| CN(Cc1ccccc1)Cc1ccc(Oc2ccc3nnc(Cl)n3n2)c(-c2ccccc2)c1 | – | 0.1 to 1 µM | – |
| Cc1cc2nnc(Cl)n2nc1Oc1cc(C(F)(F)F)ccc1-c1cncnc1C [Cpd.5-47, 3-chloro-7-methyl-6-(2-(4-methylpyrimidin-5-yl)-5-(trifluoromethyl)phenoxy)-[1,2,4]triazolo[4,3-b]pyridazine] | – | 1 to 6 µM | – |
| Clc1nnc2ccc(Oc3ccc(CNC4CCCC4)cc3-c3ccccc3)nn12 [Cpd.4-160, 3-chloro-6-(5-(cyclopentylaminomethyl)biphenyl-2-yloxy)-[1,2,4]triazolo[4,3-b]pyridazine] | – | 1 to 6 µM | – |
| CCCn1cc(-c2ccc(C(F)(F)F)cc2Oc2ccc3nnc(Cl)n3n2)ccc1=O [Cpd.4-88, 5-(2-(3-chloro-[1,2,4]triazolo[4,3-b]pyridazin-6-yloxy)-4-(trifluoromethyl)phenyl)-1-propylpyridin-2(1H)-one] | – | > 6 µM | > 130% |
| CC(C)C(=O)Nc1ccc(Oc2ccc3nnc(Cl)n3n2)c(-c2ccccc2)c1 [Cpd.4-192, 3-chloro-6-(5-isopropylcarbonylamino-biphenyl-2-yloxy)-[1,2,4]triazolo[4,3-b]pyridazine] | – | 1 to 6 µM | – |
| COc1ccncc1-c1ccc(C(F)(F)F)cc1Oc1ccc2nnc(Cl)n2n1 [Cpd.4-100, 3-chloro-6-(2-(4-methoxypyridin-3-yl)-5-(trifluoromethyl)phenoxy)-[1,2,4]triazolo[4,3-b]pyridazine] | – | 1 to 6 µM | – |
| FC(F)(F)c1ccc(-c2cccc(CNC3CC3)c2)c(Oc2ccc3nnc(Cl)n3n2)c1 [Cpd.4-168, 3-chloro-6-(4-(trifluoromethyl)-3′-(cyclopropylaminomethyl)biphenyl-2-yloxy)-[1,2,4]triazolo[4,3-b]pyridazine, hydrochloride] | – | 1 to 6 µM | – |
| FC(F)(F)c1ccc(-c2ccncc2)c(Oc2ccc3nnc(Cl)n3n2)c1 [Cpd.4-79, 3-chloro-6-(2-(pyridin-4-yl)-5-(trifluoromethyl)phenoxy)-[1,2,4]triazolo[4,3-b]pyridazine hydrochloride] | – | 1 to 6 µM | – |

More lines, now with the values ahead:

| melting point | EC50 [1] | Emax [1] | Structure (SMILES) |
| --- | --- | --- | --- |
| – | 0.1 to 1 µM | – | Fc1ccc(-c2ccccc2Oc2ccc3nnc(Cl)n3n2)c(F)c1 [Cpd.4-13, 6-(2′,4′-difluoro-biphenyl-2-yloxy)-3-chloro-[1,2,4]triazolo[4,3-b]pyridazine] |
| – | 0.1 to 1 µM | – | COc1cccc(-c2ccccc2Oc2ccc3nnc(Cl)n3n2)c1 [Cpd.4-16, 6-(3′-methoxy-biphenyl-2-yloxy)-3-chloro-[1,2,4]triazolo[4,3-b]pyridazine] |
| – | < 0.1 µM | – | COc1ccc(-c2cccc(F)c2)c(Oc2ccc3nnc(Cl)n3n2)c1 [Cpd.4-112, 3-chloro-6-[(3′-fluoro-4-methoxybiphenyl-2-yl)oxy]-[1,2,4]triazolo[4,3-b]pyridazine] |
| – | 1 to 6 µM | – | FC(F)(F)c1ccc(-c2cscn2)c(Oc2ccc3nnc(Cl)n3n2)c1 [Cpd.4-106, 3-chloro-6-(2-(thiazol-4-yl)-5-(trifluoromethyl)phenoxy)-[1,2,4]triazolo[4,3-b]pyridazine] |
| – | 0.1 to 1 µM | – | FC(F)(F)c1nnc2ccc(Oc3ccccc3-c3ccccc3)nn12 [Cpd.4-2, 6-(biphenyl-2-yloxy)-3-(trifluoromethyl)-[1,2,4]triazolo[4,3-b]pyridazine] |
| – | 0.1 to 1 µM | – | Cc1ncccc1-c1ccc(C(F)(F)F)cc1Oc1nn2c(Cl)nnc2c2ccccc12 [Cpd.5-21, 3-chloro-6-(2-(2-methylpyridin-3-yl)-5-(trifluoromethyl)phenoxy)-[1,2,4]triazolo[3,4-a]phthalazine] |
| – | 0.1 to 1 µM | – | COC(=O)c1ccc(Oc2ccc3nnc(Cl)n3n2)c(-c2ccccc2)c1 [Cpd.4-69, 3-chloro-6-(5-methyloxycarbonyl-biphenyl-2-yloxy)-[1,2,4]triazolo[4,3-b]pyridazine] |
| – | 1 to 6 µM | – | COc1ncc(-c2ccc(C(F)(F)F)cc2Oc2nn3c(Cl)nnc3cc2C)cn1 [Cpd.5-35, 3-chloro-7-methyl-6-((2-(2-methoxypyrimidin-5-yl))-5-(trifluoromethyl)phenoxy)-[1,2,4]triazolo[4,3-b]pyridazine] |
| – | 1 to 6 µM | – | COc1cncc(-c2ccc(C(F)(F)F)cc2Oc2ccc3nnc(Cl)n3n2)c1 [Cpd.4-82, 3-chloro-6-(2-(5-methoxypyridin-3-yl)-5-(trifluoromethyl)phenoxy)-[1,2,4]triazolo[4,3-b]pyridazine] |
| – | 0.1 to 1 µM | – | Cc1ccc(-c2ccc(C(F)(F)F)cc2Oc2nn3c(Cl)nnc3cc2C)cn1 [Cpd.5-17, 3-chloro-7-methyl-6-(2-(6-methylpyridin-3-yl)-5-(trifluoromethyl)phenoxy)-[1,2,4]triazolo[4,3-b]pyridazine] |
| – | 1 to 6 µM | – | Oc1cccc(-c2cc(F)c(F)cc2Oc2ccc3nnc(Cl)n3n2)c1 [Cpd.4-153, 3-chloro-6-(4,5-difluoro-3′-hydroxybiphenyl-2-yloxy)-[1,2,4]triazolo[4,3-b]pyridazine] |
| – | 1 to 6 µM | – | CC(=O)Nc1ccc(Oc2ccc3nnc(Cl)n3n2)c(-c2ccccc2)c1 [Cpd.4-174, 3-chloro-6-(5-acetamidobiphenyl-2-yloxy)-[1,2,4]triazolo[4,3-b]pyridazine] |
| – | 1 to 6 µM | – | FC(F)(F)c1ccc(-c2nccs2)c(Oc2ccc3nnc(Cl)n3n2)c1 [Cpd.4-105, 3-chloro-6-(2-(thiazol-2-yl)-5-(trifluoromethyl)phenoxy)-[1,2,4]triazolo[4,3-b]pyridazine] |
| – | 0.1 to 1 µM | – | FC(F)(F)c1ccc(Oc2ccc3nnc(Cl)n3n2)c(-c2ccccc2)c1 [Cpd.4-40, 6-(5-trifluoromethyl-biphenyl-2-yloxy)-3-chloro-[1,2,4]triazolo[4,3-b]pyridazine] |
| – | 0.1 to 1 µM | – | CC(=O)OCc1ccc(-c2ccccc2)c(Oc2ccc3nnc(Cl)n3n2)c1 [Cpd.4-172, 3-chloro-6-(4-methylcarbonyloxymethylbiphenyl-2-yloxy)-[1,2,4]triazolo[4,3-b]pyridazine] |
| – | 1 to 6 µM | – | Fc1cc(Oc2ccc3nnc(C(F)(F)F)n3n2)c(-c2ccccc2)cc1F [Cpd.4-61, 3-trifluoromethyl-6-(4,5-difluorobiphenyl-2-yloxy)-[1,2,4]triazolo[4,3-b]pyridazine] |
| – | 1 to 6 µM | – | Cc1cc(Oc2cccc(C(F)(F)F)c2-c2cncnc2)nn2c(Cl)nnc12 [Cpd.5-42, 3-chloro-8-methyl-6-(2-(pyrimidin-5-yl)-3-(trifluoromethyl)phenoxy)-[1,2,4]triazolo[4,3-b]pyridazine] |
| – | 0.1 to 1 µM | – | Cc1ncccc1-c1ccc(C(F)(F)F)cc1Oc1cc(C)c2nnc(Cl)n2n1 [Cpd.5-19, 3-chloro-8-methyl-6-(2-(2-methylpyridin-3-yl)-5-(trifluoromethyl)phenoxy)-[1,2,4]triazolo[4,3-b]pyridazine] |
| – | 1 to 6 µM | – | COC(=O)c1cccc(-c2cc(F)ccc2Oc2ccc3nnc(Cl)n3n2)c1 [Cpd.4-75] |
| – | 0.1 to 1 µM | – | Cc1cccc(-c2ccccc2Oc2ccc3nnc(C(F)(F)F)n3n2)c1 [Cpd.4-133, 3-(trifluoromethyl)-6-(3′-methylbiphenyl-2-yloxy)-[1,2,4]triazolo[4,3-b]pyridazine] |
| – | 0.1 to 1 µM | – | COc1ncccc1-c1ccc(C(F)(F)F)cc1Oc1ccc2nnc(Cl)n2n1 [Cpd.4-80, 3-chloro-6-(2-(2-methoxypyridin-3-yl)-5-(trifluoromethyl)phenoxy)-[1,2,4]triazolo[4,3-b]pyridazine hydrochloride] |
| – | 1 to 6 µM | – | FC(F)(F)c1ccc(-c2ccccn2)c(Oc2ccc3nnc(Cl)n3n2)c1 [Cpd.4-97, 3-chloro-6-(2-(pyridin-2-yl)-5-(trifluoromethyl)phenoxy)-[1,2,4]triazolo[4,3-b]pyridazine hydrochloride] |
